In brackets after ≈: the same amount, converted by molar mass.
Columns and labels:
[1] = Aqueous solubility of the compound in distilled water after 24 hrs by HPLC analysis; assay type: physicochemical; conditions: for solubility: buffer, 24 h; for solubility at 24 h: distilled water
[2] = Metabolic stability in Sprague-Dawley rat liver microsomes assessed as remaining parent compound level at 10 uM preincubated for 5 mins with NADPH generating system followed by liver microsomes addition and measured after 60 mins by HPLC analysis; assay type: ADME, Microsome; conditions: read-out: Stability
[3] = Drug uptake in C57BL6/JRj mouse plasma at 10 mg/kg, po administered as single dose and measured after 2 hrs by LS-MS analysis; assay type: ADME, organism-based; conditions: in vivo
[4] = Drug uptake in C57BL6/JRj mouse liver at 10 mg/kg, po administered as single dose and measured after 2 hrs by LS-MS analysis; assay type: ADME, organism-based; conditions: in vivo
[5] = Half life in C57BL6/JRj mouse at 10 mg/kg, po administered as single dose and measured after 2 hrs by LS-MS analysis; assay type: ADME, organism-based; conditions: in vivo
[6] = Drug uptake in C57BL6/JRj mouse brain at 10 mg/kg, po administered as single dose and measured after 2 hrs by LS-MS analysis; assay type: ADME, organism-based; conditions: read-out: Drug uptake
[7] = Ratio of drug uptake in C57BL6/JRj mouse brain to plasma at 10 mg/kg, po administered as single dose and measured after 2 hrs by LS-MS analysis; assay type: ADME, organism-based
[8] = Log D, lipophilicity of the compound by HPLC analysis; assay type: physicochemical

Structure (SMILES)	solubility [1]	remaining at 1 h, 10 µM [2]	solubility at 24 h [1]	logD [8]	also measured
CN(c1cc(C(F)(F)F)nc(OCCC(=O)O)n1)c1cccc2c1CCC2	Soluble	> 50%	–	–	Drug uptake [3]: Active; Drug uptake [4]: Active; half-life [5]: 4.2 h; concentration at 2 h [6]: 275 ng/g; BPR [7]: 1.5%
O=C(O)CSc1nc(Cl)cc(Nc2cccc3c2CCCC3)n1	Soluble	> 50%	–	–	–
CCCCC(Sc1nc(Cl)cc(Nc2cccc(C)c2C)n1)C(=O)O (stereo not given)	–	> 50%	–	–	–
C=C(c1ccc(C(=O)O)cc1)c1cc2c(cc1C)C(C)(C)CCC2(C)C [BEXAROTENE]	–	–	0.3 µg/mL (≈ 0.861 µM)	4.74	–
Cc1cccc(Nc2cc(Cl)nc(SCC(=O)O)n2)c1C [PIRINIXIC ACID]	–	> 50%	48.6 µg/mL (≈ 150 µM)	1.63	–

Reference: ChEMBL document CHEMBL4411340, “Tuning Nuclear Receptor Selectivity of Wy14,643 towards Selective Retinoid X Receptor Modulation” (J Med Chem, 2019)
